{"source": "patent US20260130395A1", "about": "“Water Dispersible Botanical Compositions” (Aquila Black Limited, priority 2021, published 2026)", "assay": "Stability of cannabinoid compounds and Vitamin E components in Beverage 1 (AB White) by LCMSMS", "type": "physicochemical", "conditions": "for Stability of Plant-Derived Cannabinoid Compounds in AB White, 8° C.: AB White stored at 8° C.; for Stability of Plant-Derived Cannabinoid Compounds in AB White, 21-25° C.: AB White stored at 21-25° C."}
{"smiles": "CCCc1cc(O)c2c(c1)OC(C)(C)[C@@H]1CCC(C)=C[C@@H]21", "note": "[THCV, delta-9-tetrahydrocannabivarin]", "values": [{"measurement": "Stability of Plant-Derived Cannabinoid Compounds in AB White, 8° C.", "setting": "0 days", "value": 3.6, "unit": "µg/mL"}, {"measurement": "Stability of Plant-Derived Cannabinoid Compounds in AB White, 8° C.", "setting": "1 days", "value": 3.54, "unit": "µg/mL"}, {"measurement": "Stability of Plant-Derived Cannabinoid Compounds in AB White, 8° C.", "setting": "2 days", "value": 3.60, "unit": "µg/mL"}, {"measurement": "Stability of Plant-Derived Cannabinoid Compounds in AB White, 8° C.", "setting": "3 days", "value": 3.55, "unit": "µg/mL"}, {"measurement": "Stability of Plant-Derived Cannabinoid Compounds in AB White, 8° C.", "setting": "5 days", "value": 3.58, "unit": "µg/mL"}, {"measurement": "Stability of Plant-Derived Cannabinoid Compounds in AB White, 8° C.", "setting": "8 days", "value": 3.60, "unit": "µg/mL"}, {"measurement": "Stability of Plant-Derived Cannabinoid Compounds in AB White, 8° C.", "setting": "9 days", "value": 3.61, "unit": "µg/mL"}, {"measurement": "Stability of Plant-Derived Cannabinoid Compounds in AB White, 8° C.", "setting": "10 days", "value": 3.58, "unit": "µg/mL"}, {"measurement": "Stability of Plant-Derived Cannabinoid Compounds in AB White, 8° C.", "setting": "11 days", "value": 3.59, "unit": "µg/mL"}, {"measurement": "Stability of Plant-Derived Cannabinoid Compounds in AB White, 8° C.", "setting": "12 days", "value": 3.50, "unit": "µg/mL"}, {"measurement": "Stability of Plant-Derived Cannabinoid Compounds in AB White, 8° C.", "setting": "15 days", "value": 3.56, "unit": "µg/mL"}, {"measurement": "Stability of Plant-Derived Cannabinoid Compounds in AB White, 8° C.", "setting": "16 days", "value": 3.57, "unit": "µg/mL"}, {"measurement": "Stability of Plant-Derived Cannabinoid Compounds in AB White, 8° C.", "setting": "17 days", "value": 3.61, "unit": "µg/mL"}, {"measurement": "Stability of Plant-Derived Cannabinoid Compounds in AB White, 8° C.", "setting": "18 days", "value": 3.59, "unit": "µg/mL"}, {"measurement": "Stability of Plant-Derived Cannabinoid Compounds in AB White, 8° C.", "setting": "19 days", "value": 3.51, "unit": "µg/mL"}, {"measurement": "Stability of Plant-Derived Cannabinoid Compounds in AB White, 8° C.", "setting": "22 days", "value": 3.60, "unit": "µg/mL"}, {"measurement": "Stability of Plant-Derived Cannabinoid Compounds in AB White, 8° C.", "setting": "23 days", "value": 3.55, "unit": "µg/mL"}, {"measurement": "Stability of Plant-Derived Cannabinoid Compounds in AB White, 8° C.", "setting": "24 days", "value": 3.56, "unit": "µg/mL"}, {"measurement": "Stability of Plant-Derived Cannabinoid Compounds in AB White, 8° C.", "setting": "25 days", "value": 3.56, "unit": "µg/mL"}, {"measurement": "Stability of Plant-Derived Cannabinoid Compounds in AB White, 8° C.", "setting": "26 days", "value": 3.63, "unit": "µg/mL"}, {"measurement": "Stability of Plant-Derived Cannabinoid Compounds in AB White, 8° C.", "setting": "29 days", "value": 3.52, "unit": "µg/mL"}, {"measurement": "Stability of Plant-Derived Cannabinoid Compounds in AB White, 8° C.", "setting": "30 days", "value": 3.59, "unit": "µg/mL"}, {"measurement": "Stability of Plant-Derived Cannabinoid Compounds in AB White, 8° C.", "setting": "60 days", "value": 3.58, "unit": "µg/mL"}, {"measurement": "Stability of Plant-Derived Cannabinoid Compounds in AB White, 8° C.", "setting": "90 days", "value": 3.56, "unit": "µg/mL"}, {"measurement": "Stability of Plant-Derived Cannabinoid Compounds in AB White, 8° C.", "setting": "120 days", "value": 3.56, "unit": "µg/mL"}, {"measurement": "Stability of Plant-Derived Cannabinoid Compounds in AB White, 8° C.", "setting": "150 days", "value": 3.55, "unit": "µg/mL"}, {"measurement": "Stability of Plant-Derived Cannabinoid Compounds in AB White, 8° C.", "setting": "180 days", "value": 3.59, "unit": "µg/mL"}, {"measurement": "Stability of Plant-Derived Cannabinoid Compounds in AB White, 8° C.", "setting": "210 days", "value": 3.44, "unit": "µg/mL"}, {"measurement": "Stability of Plant-Derived Cannabinoid Compounds in AB White, 8° C.", "setting": "240 days", "value": 3.56, "unit": "µg/mL"}, {"measurement": "Stability of Plant-Derived Cannabinoid Compounds in AB White, 8° C.", "setting": "270 days", "value": 3.47, "unit": "µg/mL"}, {"measurement": "Stability of Plant-Derived Cannabinoid Compounds in AB White, 8° C.", "setting": "300 days", "value": 3.46, "unit": "µg/mL"}, {"measurement": "Stability of Plant-Derived Cannabinoid Compounds in AB White, 8° C.", "setting": "330 days", "value": 3.52, "unit": "µg/mL"}, {"measurement": "Stability of Plant-Derived Cannabinoid Compounds in AB White, 8° C.", "setting": "360 days", "value": 3.50, "unit": "µg/mL"}, {"measurement": "Stability of Plant-Derived Cannabinoid Compounds in AB White, 8° C.", "setting": "390 days", "value": 3.47, "unit": "µg/mL"}, {"measurement": "Stability of Plant-Derived Cannabinoid Compounds in AB White, 8° C.", "setting": "420 days", "value": 3.49, "unit": "µg/mL"}, {"measurement": "Stability of Plant-Derived Cannabinoid Compounds in AB White, 8° C.", "setting": "450 days", "value": 3.44, "unit": "µg/mL"}, {"measurement": "Stability of Plant-Derived Cannabinoid Compounds in AB White, 8° C.", "setting": "480 days", "value": 3.44, "unit": "µg/mL"}, {"measurement": "Stability of Plant-Derived Cannabinoid Compounds in AB White, 8° C.", "setting": "510 days", "value": 3.34, "unit": "µg/mL"}, {"measurement": "Stability of Plant-Derived Cannabinoid Compounds in AB White, 8° C.", "setting": "540 days", "value": 3.32, "unit": "µg/mL"}, {"measurement": "Stability of Plant-Derived Cannabinoid Compounds in AB White, 8° C.", "setting": "570 days", "value": 3.30, "unit": "µg/mL"}, {"measurement": "Stability of Plant-Derived Cannabinoid Compounds in AB White, 21-25° C.", "setting": "0 days", "value": 3.6, "unit": "µg/mL"}, {"measurement": "Stability of Plant-Derived Cannabinoid Compounds in AB White, 21-25° C.", "setting": "1 days", "value": 3.48, "unit": "µg/mL"}, {"measurement": "Stability of Plant-Derived Cannabinoid Compounds in AB White, 21-25° C.", "setting": "2 days", "value": 3.58, "unit": "µg/mL"}, {"measurement": "Stability of Plant-Derived Cannabinoid Compounds in AB White, 21-25° C.", "setting": "3 days", "value": 3.54, "unit": "µg/mL"}, {"measurement": "Stability of Plant-Derived Cannabinoid Compounds in AB White, 21-25° C.", "setting": "5 days", "value": 3.55, "unit": "µg/mL"}, {"measurement": "Stability of Plant-Derived Cannabinoid Compounds in AB White, 21-25° C.", "setting": "8 days", "value": 3.63, "unit": "µg/mL"}, {"measurement": "Stability of Plant-Derived Cannabinoid Compounds in AB White, 21-25° C.", "setting": "9 days", "value": 3.55, "unit": "µg/mL"}, {"measurement": "Stability of Plant-Derived Cannabinoid Compounds in AB White, 21-25° C.", "setting": "10 days", "value": 3.55, "unit": "µg/mL"}, {"measurement": "Stability of Plant-Derived Cannabinoid Compounds in AB White, 21-25° C.", "setting": "11 days", "value": 3.59, "unit": "µg/mL"}, {"measurement": "Stability of Plant-Derived Cannabinoid Compounds in AB White, 21-25° C.", "setting": "12 days", "value": 3.47, "unit": "µg/mL"}, {"measurement": "Stability of Plant-Derived Cannabinoid Compounds in AB White, 21-25° C.", "setting": "15 days", "value": 3.48, "unit": "µg/mL"}, {"measurement": "Stability of Plant-Derived Cannabinoid Compounds in AB White, 21-25° C.", "setting": "16 days", "value": 3.60, "unit": "µg/mL"}, {"measurement": "Stability of Plant-Derived Cannabinoid Compounds in AB White, 21-25° C.", "setting": "17 days", "value": 3.51, "unit": "µg/mL"}, {"measurement": "Stability of Plant-Derived Cannabinoid Compounds in AB White, 21-25° C.", "setting": "18 days", "value": 3.50, "unit": "µg/mL"}, {"measurement": "Stability of Plant-Derived Cannabinoid Compounds in AB White, 21-25° C.", "setting": "19 days", "value": 3.59, "unit": "µg/mL"}, {"measurement": "Stability of Plant-Derived Cannabinoid Compounds in AB White, 21-25° C.", "setting": "22 days", "value": 3.52, "unit": "µg/mL"}, {"measurement": "Stability of Plant-Derived Cannabinoid Compounds in AB White, 21-25° C.", "setting": "23 days", "value": 3.57, "unit": "µg/mL"}, {"measurement": "Stability of Plant-Derived Cannabinoid Compounds in AB White, 21-25° C.", "setting": "24 days", "value": 3.63, "unit": "µg/mL"}, {"measurement": "Stability of Plant-Derived Cannabinoid Compounds in AB White, 21-25° C.", "setting": "25 days", "value": 3.54, "unit": "µg/mL"}, {"measurement": "Stability of Plant-Derived Cannabinoid Compounds in AB White, 21-25° C.", "setting": "26 days", "value": 3.55, "unit": "µg/mL"}]}
